# From patent publication US6110963A, “Aryl-oxo-acetic acids useful in the treatment of insulin resistance and hyperglycemia” (American Home Products Corporation, priority 1999, dated 2000)
# Where two headings read alike, the source gives them in different places.
# What was measured:
# [1] = molecular target: T1, Human recombinant PTP1B (hPTP1B) (Homo sapiens, UniProt P18031); assay type: biochemical; settings: for IC50: recombinant PTP1B, malachite green phosphate detection; for inhibition at 2.5 µM: read-out: change of PTP1B activity (percent of phosphatase control) at single concentration
# T1 construct: made in house
# T1 sequence (P18031 1-435): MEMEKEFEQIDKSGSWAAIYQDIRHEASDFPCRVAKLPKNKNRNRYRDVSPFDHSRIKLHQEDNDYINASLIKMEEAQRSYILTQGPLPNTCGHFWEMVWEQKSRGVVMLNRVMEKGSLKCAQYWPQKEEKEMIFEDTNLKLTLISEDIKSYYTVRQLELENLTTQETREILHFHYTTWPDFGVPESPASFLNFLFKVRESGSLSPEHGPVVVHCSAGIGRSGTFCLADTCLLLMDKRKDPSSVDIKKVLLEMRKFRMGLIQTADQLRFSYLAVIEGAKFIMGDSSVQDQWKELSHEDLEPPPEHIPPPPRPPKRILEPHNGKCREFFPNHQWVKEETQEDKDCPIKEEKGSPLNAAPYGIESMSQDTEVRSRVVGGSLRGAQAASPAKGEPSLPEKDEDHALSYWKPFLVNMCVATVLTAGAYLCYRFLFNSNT
# [2] = test system: rat hepatic microsomal PTPases; settings: PTPase activity, compound at 50 μM, rat liver microsomes
# diabetic (ob/ob) mice = assay: Blood glucose lowering activity in diabetic (ob/ob) mice; assay type: in vivo, mouse; settings: 100 mg/Kg; for % Change Glucose from Vehicle: plasma glucose
# From the text: The procedures used and results obtained are briefly described below.
# The non-insulin dependent diabetic (NIDDM) syndrome can be typically characterizes by obesity, hyperglycemia, abnormal insulin secretion, hyperinsulinemia and insulin resistance.
# In each test procedure, mice [Male or female ob/ob (C57 B1/6J) and their lean litermates (ob/+ or +/+, Jackson Laboratories) ages 2 to 5 months (10 to 65 g)] of a similar age were randomized according to body weight into 4 groups of 10 mice. The mice were housed 5 per cage and are maintained on normal rodent chow with water ad libitum. Mice received test compound daily by gavage (suspended in 0.5 ml of 0.5% methyl cellulose); dissolved in the drinking water; or admixed in the diet. The dose of compounds given ranges from 2.5 to 200 mg/kg body weight/day. The dose is calculated based on the fed weekly body weight and is expressed as active moiety. […] Control mice received vehicle only.
# On the morning of Day 4, 7 or 14 two drops of blood (approximetly 50 ul) were collected into sodium fluoride containing tubes either from the tail vein or after decapitation. For those studies in which the compound was administered daily by gavage the blood samples were collected two hours after compound administration. The plasma was isolated by centrifugation and the concentration of glucose is measured enzymatically on an Abbott V. P. Analyzer.
# For each mouse, the percentage change in plasma glucose on Day 4, 7 or 14 is calculated relative to the mean plasma glucose of the vehicle treated mice. Analysis of variance followed by Dunett's Comparison Test (one-tailed) are used to estimate the significant difference between the plasma glucose values from the control group and the individual compound treated groups (CMS SAS Release 5.18).
IC50 [1],% Change from Control [2],SMILES,also measured
1160 nM,-31%,CCCCc1oc2ccccc2c1C(O)c1ccc2cc(O)ccc2c1 (stereo not shown) [Example 1],–
1350 nM,-37%,CCCCc1oc2ccccc2c1Cc1ccc2cc(O)ccc2c1 [Example 2],–
330 nM,-37%,"CCCCc1oc2ccccc2c1Cc1ccc2c(Br)c(O)ccc2c1 [Example 3, 1-Bromo-6-(2-butyl-benzofuran-3-ylmethyl)-naphthalen-2-ol]",–
1440 nM,-65%,"CCCCc1oc2ccccc2c1Cc1ccc2c(Br)c(OCC(=O)O)ccc2c1 [Example 4, [1-Bromo-6-(2-butyl-benzofuran-3-ylmethyl)-naphthalen-2-yloxy]-acetic acid]",–
370 nM,-59%,"CCCCc1oc2ccccc2c1Cc1ccc2c(Br)c(OC(Cc3ccccc3)C(=O)O)ccc2c1 (stereo not shown) [Example 5, 2-[1-Bromo-6-(2-butyl-benzofuran-3-ylmethyl)-naphthalen-2-yloxy]-3-phenylpropionic acid]",% Change Glucose from Vehicle (diabetic (ob/ob) mice): -25.6%
700 nM,-62%,"CCCCc1oc2ccccc2c1Cc1ccc2c(Br)c(OCc3nnn[nH]3)ccc2c1 [Example 6, 5-[1-Bromo-6-(2-butyl-benzofuran-3-ylmethyl)-naphthalen-2-yloxymethyl]-1H-tetrazole]",–
310 nM,-24%,"CCCCc1oc2ccccc2c1Cc1ccc2c(I)c(O)ccc2c1 [Example 7, 6-(2-Butyl-benzofuran-3-ylmethyl)-1-iodo-naphthalen-2-ol]",–
310 nM,-58%,CCCCc1oc2ccccc2c1Cc1ccc2c(I)c(OC(Cc3ccccc3)C(=O)O)ccc2c1 (stereo not shown) [Example 8],% Change Insulin from Vehicle (diabetic (ob/ob) mice): -33%; % Change Glucose from Vehicle (diabetic (ob/ob) mice): -11%
480 nM,–,"CCCCc1oc2ccccc2c1C(O)c1ccc2c(Br)c(O)ccc2c1 (stereo not shown) [Example 9, 1-Bromo-6-[(2-butyl-benzofuran-3-yl)-hydroxy-methyl]-naphthalen-2-ol]",% Change Insulin from Vehicle (diabetic (ob/ob) mice): -38%
–,-69%,"CCCCc1oc2ccccc2c1C(=O)c1ccc2c(Br)c(OCC(=O)O)ccc2c1 [Example 10, [1-Bromo-6-(2-butyl-benzofuran-3-carbonyl)-naphthalen-2-yloxy]-acetic acid]",inhibition at 2.5 µM ([1]; compound at 2.5 uM): 46%
1230 nM,-77%,"CCCCc1oc2ccccc2c1C(=O)c1ccc2c(Br)c(OC(Cc3ccccc3)C(=O)O)ccc2c1 (stereo not shown) [Example 11, 2-[1-Bromo-6-(2-butyl-benzofuran-3-carbonyl)-naphthalen-2-yloxy]-3-phenylpropionic acid]",–
1130 nM,-70%,"CCCCc1oc2ccccc2c1C(=O)c1ccc2c(Br)c(OCc3nnn[nH]3)ccc2c1 [Example 12, [5-bromo-6-(1H-tetrazol-5-ylmethoxy)-naphthalen-2-yl]-(2-butyl-benzofuran-3-yl)methanone]",% Change Insulin from Vehicle (diabetic (ob/ob) mice): 12%; % Change Glucose from Vehicle (diabetic (ob/ob) mice): -24.8%
1040 nM,-37%,"Oc1ccc2cc(Cc3c(Cc4ccccc4)sc4ccccc34)ccc2c1Br [Example 13, 6-(2-Benzyl-benzo[b]thiophen-3-ylmethyl)-1-bromo-naphthalen-2-ol]",–
230 nM,–,"CCCCc1oc2ccccc2c1C(O)c1ccc(-c2ccc(O)cc2)cc1 (stereo not shown) [Example 14, 4'-[(2-Butyl-benzofuran-3-yl)-hydroxy-methyl]-biphenyl-4-ol]",–
–,-20%,"CCCCc1oc2ccccc2c1C(=O)c1ccc(-c2ccc(O)cc2)cc1 [Example 15, (2-Butyl-benzofuran-3-yl)-(4'-hydroxy-biphenyl-4-yl)-methanone]",inhibition at 2.5 µM [1]: 53%
1190 nM,-28%,CCCCc1oc2ccccc2c1Cc1ccc(-c2ccc(O)cc2)cc1 [Example 16],–
1150 nM,-76%,CCCCc1oc2ccccc2c1Cc1ccc(-c2ccc(OCC(=O)O)cc2)cc1 [Example 17],–

IC50 [1],% Change from Control [2],SMILES,also measured
510 nM,–,CCCCc1oc2ccccc2c1Cc1ccc(-c2ccc(OCc3nnn[nH]3)cc2)cc1 [Example 18],–
540 nM,-24%,"CCCCc1oc2ccccc2c1C(O)c1ccc(-c2ccc(OCC(=O)O)cc2)cc1 (stereo not shown) [Example 19, {4'-[(2-Butyl-benzofuran-3-yl)-hydroxy-methyl]-biphenyl-4-yloxy}-acetic acid]",–
1400 nM,-22%,"CCCCc1oc2ccccc2c1C(O)c1ccc(-c2cc(Br)c(O)c(Br)c2)cc1 (stereo not shown) [Example 20, 3,5-Dibromo-4'-[(2-butyl-benzofuran-3-yl)-hydroxy-methyl]-biphenyl-4-ol]",–
–,–,"Oc1ccc(-c2ccc(C(O)c3c(Cc4ccccc4)sc4ccccc34)cc2)cc1 (stereo not shown) [Example 21, 4'-[(2-Benzyl-benzorblthiophen-3-yl)-hydroxy-methyl]-biphenyl-4-ol]",inhibition at 2.5 µM ([1]; compound at 2.5 uM): 36%
–,-38%,"CCCCc1oc2ccccc2c1C(O)c1ncc(-c2ccc(OC)cc2)o1 (stereo not shown) [Example 22, (2-Butyl-benzofuran-3-yl)-[5-(4-methoxy-phenyl)-oxazole-2-yl]-methanol]",–
–,–,"CCCCc1oc2ccccc2c1C(=O)c1ncc(-c2ccc(OC)cc2)o1 [Example 23, (2-Butyl-benzofuran-3-yl)-[5-(4-methoxy-phenyl)-oxazole-2-yl]-methanone]",inhibition at 2.5 µM ([1]; compound at 2.5 uM): 55%
–,–,"CCCCc1oc2ccccc2c1Cc1ncc(-c2ccc(OC)cc2)o1 [Example 24, 2-(2-Butyl-benzofuran-3-ymethyl)-5-(4-methoxy-phenyl)-oxazole]",inhibition at 2.5 µM ([1]; compound at 2.5 uM): 35%
1360 nM,–,"CCCCc1oc2ccccc2c1C(=O)c1nc(Br)c(-c2ccc(OC)cc2)o1 [Example 25, [4-Bromo-5-(4-methoxy-phenyl)-oxazol-2-yl]-(2-butyl-benzofuran-3-yl)-methanone]",–
1240 nM,–,CCCCc1oc2cc(Br)ccc2c1Cc1nc(Br)c(-c2ccc(OC)cc2)o1 [Example 26],–
1000 nM,–,CCCCc1oc2ccccc2c1C(Sc1nc2ccccc2s1)c1ccc2cc(O)ccc2c1 (stereo not shown) [Example 27],–
1160 nM,–,"CCCCc1oc2ccccc2c1C(Sc1nc2ccccc2s1)c1ccc(-c2ccc(O)cc2)cc1 (stereo not shown) [Example 28, 4'-[(2-Butyl-benzofuran-3-yl)-(benzothiazol-2-ylsulfanyl)-methyl]-biphenyl-4-ol]",–
1860 nM,-24%,"CCCCCCCC(Sc1nc2ccccc2s1)c1cc2ccccc2s1 (stereo not shown) [Example 29, 2-[1-(Benzorblthiophen-2-yl)-octylsulfanyl]-benzothiazole]",–
580 nM,–,"CCCCc1oc2ccccc2c1C(Sc1nc2ccccc2s1)c1ccc(Br)cc1 (stereo not shown) [Example 30, 2-[(4-Bromo-phenyl)-(2-butyl-benzofuran-3-yl)-methylsulfanyl]-benzothiazole]",–
590 nM,–,"CCCCc1oc2ccccc2c1C(Sc1nc2ccccc2s1)c1ccc(Br)c2ccccc12 (stereo not shown) [Example 31, 2-[(4-Bromo-naphthalen-1-yl)-(2-butyl-benzofuran-3-yl)-methylsulfanyl]-benzothiazole]",–
1000 nM,–,CCCCc1oc2ccccc2c1C(Sc1nc2ccccc2s1)c1ccccc1 (stereo not shown) [Example 32],–
–,–,"Brc1cc(Cc2ccc3ccccc3c2)cc(Br)c1OCc1nnn[nH]1 [Example 34, 5-[2,6-Dibromo-4-(naphthalen-2-ylmethyl)-phenoxymethyl]-1H-tetrazole]",% Change Insulin from Vehicle (diabetic (ob/ob) mice): -18%; % Change Glucose from Vehicle (diabetic (ob/ob) mice): -27.8%
